For one series, the target named is T1, muscarinic receptor (Cavia porcellus, UniProt H0W1Z3).
T1 construct: from tissue; host or cells: isolated ileum of male guinea pig
The series can be described thus: Anticholinergic action on the specimen of isolated guinea pig ileum. Particulars: affinity to muscarinic receptor, concentration converted from pA2 value obtained from Schild's plot, acetylcholine contraction. Here is the method:
A specimen (length ca. 2 cm) of male guinea pig ileum was suspended into a 10 ml-organ bath filled up with Tyrode solution. The Tyrode solution was constantly gassed with 95% O2 +5% CO2 and maintained at 37 ° C. The contraction was recorded on a pen-and-ink recorder via an isotonic transducer.
Acetylcholine was added cumulatively to the bath to obtain a consistent dose-response curve and then test compound in various concentrations was investigated on the dose-response curve of acetylcholine before and after the treatment for 5 minutes. The contraction was expressed by a ratio to the maximal contraction with acetylcholine in the absence of test compound. The affinity of test compound to the muscarinic receptor was determined by converting into the concentration from pA2 value obtained from Schild's plot.

For another series, the system named is urinary bladder. The series can be described thus: Bladder selectivity (salivary secretion ID30 / rhythmic bladder contraction ED30). The settings on record: male rats, intraduodenal.
Another series concerns overactive detrusor. Particulars: clinically; cited from earlier work.
Series [1] relates to urinary bladder (rhythmic bladder contraction). The series can be described thus: Inhibitory action on the rhythmic bladder contraction. Format: in vivo. The settings on record: rat, intraduodenal; vs oxybutynin hydrochloride. Here is the method: A male rat was fixed in a supine position under the halothane anesthesia and, a catheter with rubber balloon was inserted into urinary bladder through a small incision of apex of bladder exposed by abdominal opening along the midline and the purse-string suture was performed. The catheter was led out of the upper abdominal part sutured and a three-way stopcock was connected thereto, to one of which a syringe was connected and to other of which a pressure transducer for measuring the intravesical pressure was connected. The rhythmic bladder contraction was induced by infusion of about 0.1 to 0.3 ml of water into the balloon and, after obtaining the constant amplitude of rhythmic bladder contraction, test compound was administered intraduodenally. The inhibitory effects were estimated by the reduction in amplitude of the bladder contraction.

Structures can show the parent of a compound that is named as a salt.

T1 sequence (H0W1Z3 1-590): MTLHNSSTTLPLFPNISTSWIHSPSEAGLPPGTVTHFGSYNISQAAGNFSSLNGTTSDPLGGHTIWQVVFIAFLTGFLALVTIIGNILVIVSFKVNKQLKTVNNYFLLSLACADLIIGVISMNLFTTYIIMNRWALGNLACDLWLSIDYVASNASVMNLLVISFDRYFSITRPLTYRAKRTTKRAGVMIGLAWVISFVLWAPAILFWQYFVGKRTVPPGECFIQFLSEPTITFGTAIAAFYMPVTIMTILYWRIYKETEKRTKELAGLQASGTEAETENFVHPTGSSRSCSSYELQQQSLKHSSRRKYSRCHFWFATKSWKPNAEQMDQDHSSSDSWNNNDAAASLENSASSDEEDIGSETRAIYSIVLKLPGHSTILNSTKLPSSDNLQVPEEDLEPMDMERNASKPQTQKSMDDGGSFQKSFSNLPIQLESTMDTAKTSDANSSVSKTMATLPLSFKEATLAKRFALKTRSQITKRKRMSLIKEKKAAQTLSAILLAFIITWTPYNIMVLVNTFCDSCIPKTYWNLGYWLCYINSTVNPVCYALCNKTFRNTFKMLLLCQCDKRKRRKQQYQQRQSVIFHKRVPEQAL

Turning to `CCN(CC)CCN(C)C(C(=O)NC(C)(C)C)c1ccccc1` (stereo not shown) [Example 14], at muscarinic receptor, the Kb is 5 µM. The “bladder selectivity (inhibitory activity on the salivary secretion (ID30)/inhibitory activity on the rhythmic bladder contraction (ED30))” value in the series on urinary bladder is 4.
For the compound `CCN(CC)CC#CCOC(=O)C(O)(c1ccccc1)C1CCCCC1` (stereo not shown) [Oxybutynin hydrochloride], in the series on overactive detrusor, the adverse effects entry was “frequently cause the adverse effects such as dry mouth and urinary retention”; the clinical effectiveness result was “effective for treatment of syndrome elicited by bladder activity”.
Consider `CCN(CC)C(=O)C(NCCNC(C)C)c1ccccc1` (stereo not shown) [Example 4], for which the Kb on muscarinic receptor was 2 µM. For the same compound, the “bladder selectivity (inhibitory activity on the salivary secretion (ID30)/inhibitory activity on the rhythmic bladder contraction (ED30))” value in the series with urinary bladder stood at 4.
Take `CCN(CC)C(=O)C(NCCN(C(C)C)C(C)C)c1ccccc1` (stereo not shown) [Example 7]: in series [1], the “inhibitory activity on bladder compared with oxybutynin hydrochloride” value is listed as “almost equal to that of oxybutynin hydrochloride”. At muscarinic receptor, the Kb was 1.3 µM. In addition, the “bladder selectivity (inhibitory activity on the salivary secretion (ID30)/inhibitory activity on the rhythmic bladder contraction (ED30))” value with urinary bladder was found to be 4.
Taken in the same sequence, the figures for `CC(C)(C)NCCNC(C(=O)NC1CCCCC1)c1ccccc1` (stereo not drawn) [Example 1, N-cyclohexyl-α-[[2-(tert-butylamino)ethyl]amino]phenylacetamide] were “almost equal to that of oxybutynin hydrochloride”, 0.79 µM and 5.
Regarding `CCN(CC)CCNC(C(=O)N(C)CCc1ccc(OC)c(OC)c1)c1ccccc1` (stereo not shown) [Example 41], at muscarinic receptor, the Kb was 6.3 µM. For the same compound, in the series on urinary bladder, the “bladder selectivity (inhibitory activity on the salivary secretion (ID30)/inhibitory activity on the rhythmic bladder contraction (ED30))” value turned out to be 5.
As to `CCN(CC)CCNC(C(=O)N(CC)CC)c1ccccc1` (stereo not shown) [Example 6], the “inhibitory activity on bladder compared with oxybutynin hydrochloride” value in series [1] is listed as “almost equal to that of oxybutynin hydrochloride”. The same compound had a Kb on muscarinic receptor of 2.5 µM. Besides, the “bladder selectivity (inhibitory activity on the salivary secretion (ID30)/inhibitory activity on the rhythmic bladder contraction (ED30))” value in the series with urinary bladder is on record as 3.
As to `CC(CC(c1ccccc1)c1ccccc1)NC(C)(C)C` (stereo not shown) [Terodiline hydrochloride, reference compound], at muscarinic receptor, the Kb was 0.1 µM. Moreover, in the series on overactive detrusor, the adverse effects result was “frequently cause the adverse effects such as dry mouth and urinary retention”; the clinical effectiveness result is listed as “effective for treatment of syndrome elicited by bladder activity”. Besides, in the series with urinary bladder, the “bladder selectivity (inhibitory activity on the salivary secretion (ID30)/inhibitory activity on the rhythmic bladder contraction (ED30))” value is 1.
Turning to `CCN(CC)CCNC(C(=O)NC(C)(C)C)c1ccccc1` (stereo not drawn) [Example 3, N-tert-butyl-α-[[2-(diethylamino)ethyl]amino]phenylacetamide], the Kb on muscarinic receptor was 3.2 µM. Further, the “bladder selectivity (inhibitory activity on the salivary secretion (ID30)/inhibitory activity on the rhythmic bladder contraction (ED30))” value in the series with urinary bladder was 4.
Taken in the same sequence, the figures for `CCN(CC)C(=O)C(NCCNC(C)(C)C)c1ccccc1` (stereo not drawn) [Example 2, N, N-diethyl-α-[[2-(tert-butylamino)ethyl]amino]phenylacetamide] were 16 µM and 6.

Values taken from patent US5439919A, “Arylglycinamide derivatives and preparative processes therefor” (Kyorin Pharmaceutical Co., Ltd., priority 1992, dated 1995).
